# Reference: article PMC8196787, “Design and Pharmacodynamics of Recombinant Fungus Defensin NZL with Improved Activity against Staphylococcus hyicus In Vitro and In Vivo” (International Journal of Molecular Sciences, 2021)
# Like-named read-outs stand apart in the source and are kept apart here. Positions of bridges follow the written chain, without caps; N, C: chain ends. Residues, ends and D or L forms follow the SMILES beside them.
# What was measured:
# S. aureus ATCC 25923 = assay: microbe, parasite or virus in culture; format: cell-based; details: microbroth dilution, MHB, 37 °C, 16–20 h, triplicate
# Description: (§1) The microbroth dilution method was used to evaluate the MIC values of new derivative peptides. […] The MIC value was defined as the lowest concentration where no visible bacteria growth occurred after overnight incubation. CRO was used as the positive control. All assays were conducted in triplicate.
# S. aureus ATCC 43300 = assay: microbe, parasite or virus in culture; format: cell-based; details: S. aureus ATCC 43300; microbroth dilution, MHB, 37 °C, 16–20 h, triplicate; read-out: MIC
# Description: as §1
# S. hyicus ACCC 61734 = assay: microbe, parasite or virus in culture; format: cell-based
# Description: as §1
# S. hyicus NCTC 10350 [1] = assay: microbe, parasite or virus in culture; format: cell-based; details: microbroth dilution, MHB, 37 °C, 16–20 h, triplicate
# Description: as §1
# S. hyicus NCTC 10350 [2] = assay: Time-killing curves; format: cell-based
# Description: Time-kill curves were performed to assess the bactericidal rates of peptides against S. hyicus NCTC 10350 [25]. […] The samples were taken at regular intervals for colony counting. Cells treated with PBS and CRO were used as the negative control and positive control.
# [3] = system: intracellular S. hyicus NCTC 10350 in Hacat cells; format: cell-based; details: 24 h treatment, mean, n = 3
# Description: Hacat cells (2.5 × 10^5 cells/mL) were dispensed into a 12-well plate for 24 h. Besides, the mid-log phase S. hyicus NCTC 10350 (2.5 × 10^7 CFU/mL) were coincubated with Hacat cells for 0.5 h. Then, lysostaphin was supplemented to kill extracellular bacteria. Hereafter, cells were treated with peptides or CRO for 24 h and lysed with lysis buffer. The intracellular bacteria were processed for colony counting.
# mouse erythrocytes = assay: Hemolysis; format: cell-based; details: at 256 μg/mL; 8% (v/v) mouse erythrocytes in 0.9% NaCl, 37 °C, 1 h, 540 nm; n = 3
# Description: The hemolytic activity of peptides against fresh mouse erythrocytes was evaluated as described previously. In brief, 8% (v/v) erythrocyte solution in 0.9% NaCl was mixed with peptide solution (1–256 μg/mL) in an equal volume; then the mixtures were incubated at 37 °C for 1 h, centrifuged at 5000 rpm for 5 min and measured at 540 nm on a microplate reader. The absorbance of 0.9% NaCl (A0) and 0.1% Triton X-100 (A100) was used as controls. The hemolysis percentages of peptide were calculated by the following equation: Hemolysis (%) = [(A − A0)/(A100 − A0)] × 100.
# Hacat cells = assay: Cytotoxicity, MTT assay; format: cell-based; details: within 256 μg/mL (1–256 μg/mL), n = 3
# Description: The cytotoxicity of peptides toward Hacat cells was determined by the 3-(4,5-dimethylthiazol-2-yl)-2,5-diphenyltetrazolium bromide (MTT) assay according to a previous study.
# S. hyicus NCTC 10350 [4] = assay: Thermal stability, inhibition zone assay; format: physicochemical; details: 1 h, 64 μg/mL, inhibition zone against S. hyicus NCTC 10350, triplicate
# Description: (§2) The stability of NZL or NZ2114 against S. hyicus NCTC 10350 was conducted by inhibition zone assays. To evaluate the thermal stability, 64 μg/mL NZL or NZ2114 was incubated at different temperatures (20 °C, 40 °C, 60 °C, 80 °C, and 100 °C) for 1 h. Besides, aliquots of NZL or NZ2114 were dissolved in different pH buffers in a range from 2.0 to 10.0 at 37 °C for 3 h to analyze the pH stability. NZL or NZ2114 was mixed with pepsin or trypsin solutions at a ratio of 10:1 (w/w) to determine the protease stability. The untreated peptides and buffers alone were used as positive controls and negative controls, respectively. All assays were conducted in triplicate.
# S. hyicus NCTC 10350 [5] = assay: pH stability, inhibition zone assay; format: physicochemical; details: 3 h, triplicate
# Description: as §2
# S. hyicus NCTC 10350 [6] = assay: Mouse peritonitis model, survival; format: in vivo; details: ICR mice, S. hyicus NCTC 10350 10^9 CFU i.p., 7 days, 6 mice/group
# Description: The mice (6 mice/group) were intraperitoneally infected with the exponential phase S. hyicus NCTC 10350 cells (1 × 10^9 CFU/mL, 1 mL) to establish a mouse peritonitis model. […] Survival of mice was recorded daily for 7 days.
# S. hyicus NCTC 10350 [7] = assay: Mouse peritonitis model, bacterial translocation; format: in vivo; details: 10 mg/kg; 24 h post-treatment; mean, n = 5
# Description: (§3) Likewise, mice (15 mice/group) were injected with the exponential phase S. hyicus NCTC 10350 cells (1 × 10^9 CFU/mL, 1 mL) and treated with 10 mg/kg peptides or 60 mg/kg CRO. After 2 and 24 h post-treatment, sera were collected to test the levels of cytokines using enzyme linked immunosorbent assay (ELISA) kit. To evaluate bacterial translocation, organs were harvest from mice at 24-h post-treatment for colony counting; then, organs were removed from mice at 5 d post-treatment and observed through a light microscope to assess organ injury. The uninfected mice, the treated mice with CRO or PBS were served as the blank control, positive and negative control, respectively.
# IL-1β = assay: Mouse peritonitis model, serum cytokine ELISA; format: in vivo; details: 10 mg/kg
# Description: as §3
# IL-6 = assay: Mouse peritonitis model, serum cytokine ELISA; format: in vivo; details: 10 mg/kg
# Description: as §3
# TNF-α = assay: Mouse peritonitis model, serum cytokine ELISA; format: in vivo; details: 10 mg/kg
# Description: as §3
# S. hyicus NCTC 10350 [8] = assay: Mouse peritonitis model, organ injury by light microscope; format: in vivo; details: 10 mg/kg, organs harvested at 5 d
# Description: as §3
smiles,measurement,setting,value
"CC[C@H](C)[C@@H]1NC(=O)[C@H](CO)NC(=O)[C@H](CCCCN)NC(=O)[C@@H]2CSSC[C@@H](C(=O)N[C@@H](Cc3ccc(O)cc3)C(=O)O)NC(=O)[C@H](CCCCN)NC(=O)[C@@H]3CSSC[C@H](NC(=O)[C@H](CCC(N)=O)NC(=O)[C@H]([C@@H](C)CC)NC(=O)[C@H](CC(=O)O)NC(=O)[C@H](CC(=O)O)NC(=O)[C@H](CCC(=O)O)NC(=O)[C@H](CO)NC(=O)[C@H](Cc4c[nH]c5ccccc45)NC(=O)[C@@H]4CCCN4C(=O)CNC(=O)[C@H](CC(N)=O)NC(=O)[C@@H](NC(=O)CNC(=O)[C@H](Cc4ccccc4)NC(=O)CN)CSSC[C@H](NC(=O)[C@H](Cc4ccc(O)cc4)NC(=O)CNC(=O)CNC(=O)[C@H](CCCCN)NC(=O)[C@H](Cc4ccc(O)cc4)NC(=O)CNC(=O)[C@H](CCCCN)NC1=O)C(=O)N[C@@H](C)C(=O)N[C@@H](CCCCN)C(=O)NCC(=O)NCC(=O)N[C@@H](Cc1ccccc1)C(=O)N[C@@H](C(C)C)C(=O)N3)C(=O)N[C@@H](Cc1c[nH]cn1)C(=O)N[C@@H](CC(N)=O)C(=O)N[C@@H](Cc1c[nH]cn1)C(=O)N2 [NZL] (H-GFGCNGPWSEDDIQCHNHCKSIKGYKGGYCAKGGFVCKCY-OH; disulfide 4-30, 15-37, 19-39; N-terminus and C-terminus assumed)",MIC,S. aureus ATCC 25923,4 µg/mL
same,MIC,S. aureus ATCC 25923; read-out: MIC,0.92 µM
same,MIC,S. aureus ATCC 43300,0.46 µM
same,MIC,"S. hyicus ACCC 61734; S. hyicus ACCC 61734 (clinical strain), microbroth dilution, MHB, 37 °C, 16–20 h, triplicate, read-out: MIC",0.23 µM
same,Change of MIC against S. hyicus ACCC 61734 compared with NZ2114,"S. hyicus ACCC 61734; clinical strain, NZL vs NZ2114",four-fold
same,MIC,S. hyicus NCTC 10350 [1],4 µg/mL
same,MIC,S. hyicus NCTC 10350 [1]; read-out: MIC,0.92 µM
same,Reduction of bacterial counts,"S. hyicus NCTC 10350 [2]; 1× MIC, MHB",7.37 Log10 CFU/mL
same,Time within which S. hyicus NCTC 10350 cells were killed completely,"S. hyicus NCTC 10350 [2]; 2× and 4× MIC, 1 × 10^5 CFU/mL in MHB, colony counting",≤ 8 h
same,Decrease of intracellular S. hyicus,[3]; 10× MIC,84.95%
same,Killing rate of intracellular S. hyicus,[3]; 1000× MIC,99.96%
same,Maximum hemolysis,mouse erythrocytes,1.11%
same,Minimum cell viability,Hacat cells,60.28%
same,Thermal stability,S. hyicus NCTC 10350 [4]; 20 to 80 °C,good thermal stability
same,Activity after heating,S. hyicus NCTC 10350 [4]; 100 °C,no activity
same,pH stability,"S. hyicus NCTC 10350 [5]; pH 2 to 10, 37 °C, inhibition zone against S. hyicus NCTC 10350",retained strong stable activity
same,Activity in the acidic environment,"S. hyicus NCTC 10350 [5]; pH 4, 37 °C, inhibition zone against S. hyicus NCTC 10350, relative to untreated peptide",94%
same,Survival rate,S. hyicus NCTC 10350 [6]; 5 mg/kg i.p. at 2 h and 8 h post-infection,50%
same,Survival rate,S. hyicus NCTC 10350 [6]; 10 mg/kg i.p. at 2 h and 8 h post-infection,83.3%
same,Bacterial counts in blood,S. hyicus NCTC 10350 [7],0.16 Log10 CFU/0.1 g
same,Bacterial counts in kidneys,S. hyicus NCTC 10350 [7],0.25 Log10 CFU/0.1 g
same,Bacterial counts in livers,S. hyicus NCTC 10350 [7],0.34 Log10 CFU/0.1 g
same,Bacterial counts in lungs,S. hyicus NCTC 10350 [7],0.62 Log10 CFU/0.1 g
same,Bacterial counts in spleens,S. hyicus NCTC 10350 [7],0.58 Log10 CFU/0.1 g
same,Serum level of IL-1β,IL-1β; 2 h after treatment,74.00 pg/mL
same,Serum level of IL-1β,IL-1β; 24 h after treatment,24.02 pg/mL
same,Serum level of IL-6,IL-6; 2 h after treatment,1029.28 pg/mL
same,Serum level of IL-6,IL-6; 24 h after treatment,44.92 pg/mL
same,Serum level of TNF-α,TNF-α; 2 h after treatment,184.14 pg/mL
same,Serum level of TNF-α,TNF-α; 24 h after treatment,5.75 pg/mL
same,"Organ injury (livers, spleens, lungs, kidneys)",S. hyicus NCTC 10350 [8],apparently less damaged
